Assays:
[1] = test system: PRL gene expression in GH4C1 cells; details: cited from earlier work
From the text: PACAP and vasoactive intestinal peptide (VIP) are members of the glucagon/secretin peptide family and have been reported to play roles in PRL regulation. […] In contrast to VIP, the biological actions of PACAP on ...

[2] = test system: grass carp PRL promoter deletion/mutation/truncation constructs in αT3-1 cells; experiment: Deletion, mutagenesis and truncation analysis of PRL promoter activity, dual-luciferase, αT3-1 cells; format: cell-based, grass carp (promoter); rat (αT3-1 cells, as printed); details: PACAP 10 nM, 24 hrs, n = 4
Method: To test the functionality of the grass carp PRL promoter, a series of deletion constructs were prepared by subcloning decreasing lengths of 5′ promoter sequence of PRL gene into the luciferase-expressing reporter pGL3.Basic. […] In this study, the upstream promoter of the carp PRL gene, including pPRL(−1156), pPRL(−914), pPRL(−670), pPRL(−448) and pPRL(−306), acted as strong promoters in αT3-1 cells. […] Subsequently, mutagenesis and truncation analysis were performed to investigate the role of transcription sites in PRL promoter activity.
Figure 3 Deletion, mutagenesis and truncation analysis of PRL promoter activity in αT3-1 cells. (A) Deletion analysis of the oPACAP38-induced PRL promoter activity. […] TEXT PRINTED IN THE PICTURE: (A) oPACAP38: pPRL(-1156).LUC: X 4.80 ± 0.15 *; pPRL(-914).LUC: X 4.51 ± 0.26 *; pPRL(-670).LUC: X 3.85 ± 0.17 *; pPRL(-448).LUC: X 3.79 ± 22 *; pPRL(-306).LUC: X 3.83 ± 0.12 *; pPRL(-166).LUC: X 3.26 ± 0.20 *; pPRL(-124).LUC: X 3.57 ± 0.19 *; pPRL(-57).LUC: X 2.09 ± 0.12 * DOUBTS OF THE COPYIST ABOUT THIS PICTURE: oPACAP38, pPRL(-448).LUC: the error reads '± 22' with no decimal point visible; '0.' may be missing or hidden / oPACAP38, pPRL(-306).LUC: 3.83 or 3.63 (small rotated print crossed by the dotted frame line) / The fold values (X ...) are printed over the oPACAP38 bars, one per promoter construct. […]

[3] = test system: αT3-1 cells, total IP; experiment: Total inositol phosphate measurement in αT3-1 cells; format: cell-based, rat (αT3-1 cells, as printed); details: myo-[3H] inositol labelled αT3-1 cells, 10 mM LiCl; treatment 45 min; GnRH 1 μM
Method: Figure 7 Functional role of the PLC/IP3/PKC and CaM/CaMK-II cascades in PACAP- and Forskolin-induced PRL promoter activity. αT3-1 cells were transiently transfected with pPRL(−1156).LUC for 6 h by using lipofectamine. After 18 h recovery, the cells were incubated with respective drugs. […] (B) Transfected αT3-1 cells were labeled with 2 μCi/well of myo-[3 H] inositol (DuPont/NEN) in myo-inositol free DMEM medium containing 10% fetal bovine serum and then treated with oPACAP38, VIP, and GnRH for 45 mins. The total IP production were analyzed by detecting the radio-labelled inositol incorporation.
Transfected αT3-1 cells were labeled with 2 μCi/well of myo-[^3H] inositol (DuPont/NEN) in myo-inositol free DMEM medium containing 10% fetal bovine serum. After incubation for 12 hr at 37 °C, myo-[^3H] inositol labeling medium was removed, and αT3-1 cells were washed two times with prewarmed phosphate buffered saline (PBS; pH 7.4) to remove trace of the excessive myo-[^3H] inositol. The transfected cells were then incubated in DMEM containing 0.1% BSA and 10 mM LiCl (to inhibit inositol phosphate degradation) for 20 min at 37 °C before drug treatment. After that, the transfected cells were treated with ovine PACAP38, VIP, and GnRH for 45 min. […] Levels of radioactivity in these samples were measured using a liquid scintillation counter (Beckman).

Substance: pituitary adenylate cyclase-activating peptide [PACAP]
- effect on PRL gene expression [1]: stimulatory effects
- PACAP-stimulated promoter activity upon mutagenesis and truncation of AP-1 site ([2]; AP-1 site −136 to −130, pPRL(−166).Luc): significantly suppressed
- PACAP-stimulated promoter activity upon mutagenesis and truncation of C/EBPalpha site ([2]; C/EBPalpha site −226 to −217, pPRL(−306).Luc): significantly suppressed
- total IP level [3]: enhance total IP level

— PMC5854708, “Grass Carp Prolactin Gene: Structural Characterization and Signal Transduction for PACAP-induced Prolactin Promoter Activity” (Scientific Reports, 2018)
